Results as given in patent US20240270701A1, “BETA ADRENERGIC AGONIST AND METHODS OF USING THE SAME” (Curasen Therapeutics, Inc., priority 2021, published 2024).
Like-named read-outs stand apart in the source and are kept apart here.

Key:
[1] = biological target: T1, B1-AR (Homo sapiens, UniProt P08588); test: cAMP Gs dynamic HTRF assay, cells expressing beta-adrenergic receptor (CHO-K1), B1-AR; assay type: cell-based; settings: for EC50: cAMP HTRF, read-out: pEC50 [B1-AR] (converted); for Emax: relative to full agonist isoproterenol, read-out: Emax (% iso) (%) [B1-AR]
T1 construct: expressed in transfected cells; host or cells: CHO-K1
T1 sequence (P08588 whole entry, species assumed): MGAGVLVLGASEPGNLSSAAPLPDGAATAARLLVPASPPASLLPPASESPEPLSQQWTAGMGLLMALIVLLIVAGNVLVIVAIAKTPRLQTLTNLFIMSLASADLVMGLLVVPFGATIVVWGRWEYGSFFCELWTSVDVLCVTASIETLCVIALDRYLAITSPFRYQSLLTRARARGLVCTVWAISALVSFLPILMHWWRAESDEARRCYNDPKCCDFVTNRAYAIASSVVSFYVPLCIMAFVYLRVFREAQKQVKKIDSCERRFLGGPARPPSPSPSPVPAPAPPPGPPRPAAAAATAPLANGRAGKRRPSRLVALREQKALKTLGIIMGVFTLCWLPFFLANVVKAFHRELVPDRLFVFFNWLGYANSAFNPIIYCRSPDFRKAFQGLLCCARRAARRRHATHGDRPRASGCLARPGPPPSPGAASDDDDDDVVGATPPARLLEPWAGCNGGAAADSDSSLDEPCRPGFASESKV
Protocol: (§1) cAMP homogeneous time-resolved fluorescence (HTRF): experimental methods. Compound efficacy is determined using the cAMP Gs dynamic HTRF assay (Cisbio, catalog #62AM4PEC) largely following the manufacturer's instructions, also detailed below.
(§2) Standard serial dilution curves are 10-point, 5-fold dilutions starting from a highest concentration of 10 μM. Controls present on every assay plate are 0.1% DMSO (vehicle control), 1 μM isoproterenol (full beta-adrenergic agonist control) and […] xamoterol (partial beta-adrenergic agonist control). […] Assay plates are centrifuged at 500×g for 10 seconds. Compounds and IBMX are prepared at 2× final dose to compensate for addition of cells.
(§3) Cell preparation: 1× stimulation buffer, washing PBS (Dulbecco's phosphate-buffered saline, − Mg − Ca; Caisson Labs, catalog #PBL01), assay PBS (Dulbecco's phosphate-buffered saline, + Mg, + Ca; Caisson Labs, catalog #PBL02) and Versene (0.02% EDTA disodium salt solution in PBS without calcium or magnesium; Caisson Labs, catalog #EDL01) are pre-warmed to 37° C. Cells expressing beta-adrenergic receptor were washed in washing PBS to remove growth medium and then released from the surface by incubating with Versene for 5-10 minutes at 37° C. Cells are harvested using assay PBS, counted manually by hemocytometer or by an automated cell counter, pelleted by centrifugation (200×g, 5 minutes) and resuspended in 37° C. 1× stimulation buffer to a final density of 1.5×10^6 cells/mL. 5 μL of the suspended cell solution (7500 cell total) are added to all wells of the 384 well assay plate, the assay plate was covered with an Axygen® plate seal (Corning PCR-SP) and incubated in a humidified 37° C. environment supplemented with 5% CO2 for 30 minutes.
(§4) HTRF reagent addition, reading and data analysis: After 30 minutes of cell stimulation with test compound, the assay plates are centrifuged at 500×g for 10 seconds, and incubation was stopped with the addition of 5 μL cAMP-D2 acceptor, diluted 1:21 in detection and lysis buffer 2 (Cisbio 62CL2FDF) was added to all cells. Subsequently, 5 μL Anti-cAMP-Eu Donor, diluted 1:21 in detection and lysis buffer 2, was added to cells. Plates were sealed and reactions gently ‘vortexed’ at 900 rpm on a Heidolph Titramax 1000 for at least 30 minutes at room temperature. Plates are centrifuged again at 500×g for 10 seconds, and HTRF was measured using a Tecan Spark plate reader at 50 flashes per well. […] Potency estimates (EC50 and pEC50) are derived from the four-parameter nonlinear regression of the concentration-effect curve and an estimate of relative efficacy is determined by comparing the magnitude of the test compound HTRF signal window (min−max dose) with the signal window of the full agonist control, isoproterenol.

[2] = biological target: T2, B2-AR (Homo sapiens, UniProt P07550); test: cAMP Gs dynamic HTRF assay, cells expressing beta-adrenergic receptor (CHO-K1), B2-AR; assay type: cell-based; settings: for EC50: cAMP HTRF, read-out: pEC50 [B2-AR] (converted); for Emax: relative to full agonist isoproterenol, read-out: Emax (% iso) (%) [B2-AR]
T2 construct: expressed in transfected cells; host or cells: CHO-K1
T2 sequence (P07550 whole entry, species assumed): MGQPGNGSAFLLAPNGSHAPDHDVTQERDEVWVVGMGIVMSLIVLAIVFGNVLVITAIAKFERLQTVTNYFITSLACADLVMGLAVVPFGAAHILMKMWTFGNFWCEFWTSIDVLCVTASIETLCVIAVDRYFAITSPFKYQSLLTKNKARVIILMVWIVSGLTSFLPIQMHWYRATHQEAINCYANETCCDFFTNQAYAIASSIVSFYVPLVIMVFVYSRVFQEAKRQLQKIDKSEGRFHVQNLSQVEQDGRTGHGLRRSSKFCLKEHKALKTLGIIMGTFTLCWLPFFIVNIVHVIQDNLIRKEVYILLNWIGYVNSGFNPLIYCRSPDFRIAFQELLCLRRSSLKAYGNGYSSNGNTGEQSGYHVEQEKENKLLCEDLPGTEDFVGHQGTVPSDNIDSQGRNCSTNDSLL
Protocol: as §1, §2, §3, §4

Emax ([2]; CHO-K1 cells)	SMILES	EC50 [1]	Emax [1]	EC50 ([2]; CHO-K1 cells)	Emax ([2]; CHO-K1, CHO-K1 cells)
> 90%	Cn1c(=O)[nH]c2cccc([C@@H](O)CNC(C)(C)C)c21 [I-93]	> 1000 nM	70 to 90%	> 1000 nM	–
70 to 90%	CC(C)(C)NC[C@H](O)c1cccc2[nH]c(=O)[nH]c12 [I-94]	100 to 1000 nM	70 to 90%	100 to 1000 nM	–
50 to 70%	CC(C)(C)NC[C@H](O)c1cccc2[nH]nc(C(N)=O)c12 [I-95]	100 to 1000 nM	70 to 90%	100 to 1000 nM	–
> 90%	CC1(NC[C@H](O)c2cccc3[nH]nc(Cl)c23)CCC1 [I-96]	< 10 nM	70 to 90%	< 10 nM	–
> 90%	O[C@@H](CNC1CCC1)c1cccc2[nH]nc(Cl)c12 [I-97]	10 to 100 nM	70 to 90%	< 10 nM	–
70 to 90%	O[C@@H](CNC1CC1)c1cccc2[nH]nc(Cl)c12 [I-98]	10 to 100 nM	70 to 90%	< 10 nM	–
70 to 90%	CC(C)CNC[C@H](O)c1cccc2[nH]nc(Cl)c12 [I-99]	100 to 1000 nM	70 to 90%	10 to 100 nM	–
–	CC1(NC[C@H](O)c2cccc3[nH]nc(Cl)c23)CC1 [I-100]	< 10 nM	70 to 90%	< 10 nM	> 90%
> 90%	CC(C)NC[C@H](O)c1cccc2[nH]nc(Cl)c12 [I-101]	< 10 nM	> 90%	< 10 nM	–
–	CC(C)(C)NC[C@H](O)c1ccc(OC(F)F)c2[nH]ncc12 [I-102]	100 to 1000 nM	50 to 70%	< 10 nM	< 50%
–	CC(C)(C)NC[C@H](O)c1cc(C2CC2)cc2[nH]ncc12 [I-103]	> 1000 nM	50 to 70%	10 to 100 nM	50 to 70%
–	CC(C)c1cc([C@@H](O)CNC(C)(C)C)c2cn[nH]c2c1 [I-104]	> 1000 nM	70 to 90%	100 to 1000 nM	70 to 90%
–	CCc1cc([C@@H](O)CNC(C)(C)C)c2cn[nH]c2c1 [I-105]	> 1000 nM	< 50%	100 to 1000 nM	< 50%
–	CC(C)(C)NC[C@H](O)c1cc(OC(F)F)cc2[nH]ncc12 [I-106]	100 to 1000 nM	70 to 90%	10 to 100 nM	50 to 70%
–	CC1(NC[C@H](O)c2cccc3[nH]cc(F)c23)CC1 [I-107]	< 10 nM	> 90%	< 10 nM	> 90%
–	O[C@@H](CNC1CC1)c1cccc2[nH]cc(F)c12 [I-108]	10 to 100 nM	> 90%	10 to 100 nM	> 90%
> 90%	CC(C)(CO)NC[C@H](O)c1cccc2[nH]cc(F)c12 [I-109]	10 to 100 nM	> 90%	10 to 100 nM	–
–	CC1(NC[C@H](O)c2cccc3[nH]cc(F)c23)CCC1 [I-110]	< 10 nM	> 90%	< 10 nM	> 90%
–	CC(C)CNC[C@H](O)c1cccc2[nH]cc(F)c12 [I-111]	10 to 100 nM	> 90%	10 to 100 nM	70 to 90%
–	CC(C)NC[C@H](O)c1cccc2[nH]cc(F)c12 [I-112]	< 10 nM	> 90%	< 10 nM	> 90%
–	O[C@@H](CNC1CCC1)c1cccc2[nH]cc(F)c12 [I-113]	< 10 nM	> 90%	10 to 100 nM	> 90%
–	CC(C)(C)NC[C@H](O)c1cccc2[nH]nc(Cl)c12 [I-114]	< 10 nM	> 90%	< 10 nM	> 90%

Emax ([2]; CHO-K1 cells)	SMILES	EC50 [1]	Emax [1]	EC50 ([2]; CHO-K1 cells)	Emax ([2]; CHO-K1, CHO-K1 cells)
–	Cc1c(Cl)[nH]c2cccc([C@@H](O)CNC(C)(C)C)c12 [I-115]	> 1000 nM	70 to 90%	100 to 1000 nM	70 to 90%
–	CC(C)(CO)NC[C@H](O)c1ccc(Cl)c2[nH]ncc12 [I-116]	10 to 100 nM	70 to 90%	< 10 nM	70 to 90%
70 to 90%	CC(C)CNC[C@H](O)c1ccc(Cl)c2[nH]ncc12 [I-117]	10 to 100 nM	50 to 70%	10 to 100 nM	–
–	CC1(NC[C@H](O)c2ccc(Cl)c3[nH]ncc23)CCC1 [I-118]	< 10 nM	70 to 90%	< 10 nM	70 to 90%
70 to 90%	O[C@@H](CNC1CCC1)c1ccc(Cl)c2[nH]ncc12 [I-119]	< 10 nM	70 to 90%	< 10 nM	–
–	CC1(NC[C@H](O)c2ccc(Cl)c3[nH]ncc23)CC1 [I-120]	< 10 nM	70 to 90%	< 10 nM	70 to 90%
–	O[C@@H](CNC1CC1)c1ccc(Cl)c2[nH]ncc12 [I-121]	< 10 nM	50 to 70%	< 10 nM	70 to 90%
–	CC(C)NC[C@H](O)c1ccc(Cl)c2[nH]ncc12 [I-122]	< 10 nM	70 to 90%	< 10 nM	70 to 90%
–	CC(C)(C)NC[C@H](O)c1cc(C(F)F)cc2[nH]ncc12 [I-123]	> 1000 nM	70 to 90%	100 to 1000 nM	70 to 90%
–	CC(C)CNC[C@H](O)c1ccc2[nH]cc(F)c2c1 [I-124]	> 1000 nM	70 to 90%	100 to 1000 nM	> 90%
70 to 90%	CC(C)(C)NC[C@H](O)c1cccc2[nH]nc(C3CC3)c12 [I-125]	100 to 1000 nM	70 to 90%	100 to 1000 nM	–
–	CC1(NC[C@H](O)c2cccc3[nH]nc(F)c23)CC1 [I-126]	< 10 nM	70 to 90%	< 10 nM	> 90%
–	O[C@@H](CNC1CCC1)c1cccc2[nH]ncc12 [I-127]	< 10 nM	> 90%	< 10 nM	> 90%
> 90%	CC1(NC[C@H](O)c2cccc3[nH]ncc23)CCC1 [I-128]	< 10 nM	> 90%	< 10 nM	–
> 90%	CC1(NC[C@H](O)c2cccc3[nH]ncc23)CC1 [I-129]	< 10 nM	> 90%	< 10 nM	–
> 90%	CC1(NC[C@H](O)c2cccc3[nH]nc(F)c23)CCC1 [I-130]	< 10 nM	> 90%	< 10 nM	–
–	CC(C)(C)NC[C@H](O)c1cc(F)cc2[nH]cnc12 [I-131]	10 to 100 nM	> 90%	10 to 100 nM	70 to 90%
–	CC(C)(CO)NC[C@H](O)c1cccc2[nH]nc(F)c12 [I-132]	< 10 nM	> 90%	< 10 nM	> 90%
–	CC(C)CNC[C@H](O)c1cccc2[nH]ncc12 [I-133]	10 to 100 nM	70 to 90%	< 10 nM	> 90%
> 90%	O[C@@H](CNC1CC1)c1cccc2[nH]ncc12 [I-134]	< 10 nM	70 to 90%	< 10 nM	–
70 to 90%	Cc1cc([C@@H](O)CNC2CC2)c2cn[nH]c2c1 [I-135]	< 10 nM	70 to 90%	< 10 nM	–
–	Cc1cc([C@@H](O)CNC2CCC2)c2cn[nH]c2c1 [I-136]	< 10 nM	> 90%	< 10 nM	> 90%
